In US20250353873A1, “COMPOUNDS AND METHODS FOR MODULATING APOE EXPRESSION” (Ionis Pharmaceuticals, Inc., priority 2024, published 2025):
Strand notation (5' to 3'): a small letter for the sugar, then the base; units joined by * are phosphorothioate-linked, units joined directly phosphodiester-linked; [ ] holds rarer units or linkages, { } end groups; capitals alone tell only the bases. [ms] = mesyl phosphoramidate linkage; e = 2'-O-(2-methoxyethyl) (MOE); k = constrained ethyl (cEt); [5mC] = 5-methylcytosine; d = 2'-deoxy (DNA)

Assays:
human APOE RNA [1] = assay: Activity in APOE C57BL/6NTac-Apoeem7250 knock-in mice, single ICV bolus, 20 weeks (Example 13); format: in vivo; details: single ICV bolus 300 μg, 20 weeks post treatment, normalized to mouse Ppia
Method in brief: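 Knock-in mice (n=4) given a single ICV bolus of 300 μg oligonucleotide, PBS as control. After 20 weeks, human APOE RNA in cortex and spinal cord measured by RT-qPCR, normalized to mouse Ppia, expressed as % of PBS-treated animals.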

human APOE RNA [2] = assay: Dose-dependent reduction of human APOE RNA in HepG2 cells, electroporation, 20,000 cells per well, average of GAPDH- and PPIA-normalized results (Example 4, Table 12); format: cell-based; details: HepG2, 20,000 cells per well; for IC50: approximately 24 hours
Experimental: HepG2 cells plated at a density of 20,000 cells per well were treated by electroporation with various concentrations of modified oligonucleotide as specified in the tables below. […] APOE RNA levels were measured using the human primer probe set RTS3073 (described herein above). APOE RNA levels were normalized to human GAPDH, and human PPIA. Human GAPDH was amplified using human primer probe set RTS104 (described herein above). Human PPIA was amplified using human primer probe set mk_cycloA_2nd (described herein above) The average of the GAPDH-normalized results and the PPIA-normalized results are presented in the table below as percent APOE RNA, relative to the amount of APOE RNA in untreated control cells (% UTC). The half maximal inhibitory concentration (IC50) of each modified oligonucleotide was calculated in GraphPad Prism 10 (GraphPad Software, San Diego, CA) and is also presented in the table below.

human APOE RNA [3] = assay: Activity in APOE C57BL/6NTac-Apoeem7250 knock-in mice, single ICV bolus, 8 weeks (Example 11); format: in vivo; details: single ICV bolus 300 μg, 8 weeks post treatment, normalized to mouse Ppia
Method in brief: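 Human APOE knock-in C57BL/6NTac mice given one ICV bolus of 300 μg oligonucleotide; PBS-dosed group as control. At 8 weeks, cortex and spinal cord RNA measured by qRT-PCR (human probe RTS3073), normalized to mouse Ppia, expressed as % of PBS control.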

human APOE RNA [4] = assay: Dose-dependent inhibition of human APOE RNA in differentiated SH-SY5Y cells, free uptake, 5 days (Example 5); format: cell-based; details: 5 days (Table 14)
Method in brief: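 Differentiated SH-SY5Y cells (10,000/well) treated by free uptake with graded oligonucleotide concentrations for 5 days. APOE RNA quantified with primer probe set RTS3073, normalized to PPIA, expressed as % untreated control; IC50 calculated.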

human APOE RNA [5] = assay: Activity in APOE C57BL/6NTac-Apoeem7250 knock-in mice, single ICV bolus, 16 weeks (Example 12); format: in vivo; details: single ICV bolus 300 μg, 16 weeks post treatment, normalized to mouse Ppia
Method in brief: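 Knock-in mice (3-4 per group) received one ICV bolus of 300 μg oligonucleotide, PBS as control. After 16 weeks, human APOE RNA in cortex and spinal cord measured by RT-qPCR, normalized to mouse Ppia, and reported as % of PBS control.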

human APOE RNA [6] = assay: Activity in APOE C57BL/6NTac-Apoeem7250 knock-in mice, single ICV bolus, 4 weeks (Example 10); format: in vivo; details: single ICV bolus 300 μg, 4 weeks post treatment, normalized to mouse Ppia
Method in brief: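 Knock-in mice (2–4 per group) received one 300 μg ICV bolus of oligonucleotide or PBS. After four weeks, human APOE RNA in cortex and spinal cord measured by RT-qPCR (primer probe set RTS3073), normalized to mouse Ppia, expressed as % of PBS controls.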

Row | Substance | APOE RNA (% control) Cortex (human APOE RNA [1]) [% control] | APOE RNA (% control) Spinal Cord (human APOE RNA [1]) [% control] | APOE RNA (% UTC) (human APOE RNA [2]; 5 nM) | APOE RNA (% UTC) (human APOE RNA [2]; 13 nM) | APOE RNA (% UTC) (human APOE RNA [2]; 33 nM) | APOE RNA (% UTC) (human APOE RNA [2]; 82 nM) | APOE RNA (% UTC) (human APOE RNA [2]; 205 nM) | APOE RNA (% UTC) (human APOE RNA [2]; 512 nM) | APOE RNA (% UTC) (human APOE RNA [2]; 1,280 nM) | APOE RNA (% UTC) (human APOE RNA [2]; 3,200 nM) | APOE RNA (% UTC) (human APOE RNA [2]; 8,000 nM) | APOE RNA (% UTC) (human APOE RNA [2]; 20,000 nM) | IC50 (human APOE RNA [2]) [nM] | APOE RNA (% control) Cortex (human APOE RNA [3]) [% control] | APOE RNA (% control) Spinal Cord (human APOE RNA [3]) [% control] | APOE RNA (% UTC) (human APOE RNA [4]; 5 nM) | APOE RNA (% UTC) (human APOE RNA [4]; 13 nM) | APOE RNA (% UTC) (human APOE RNA [4]; 33 nM) | APOE RNA (% UTC) (human APOE RNA [4]; 82 nM) | APOE RNA (% UTC) (human APOE RNA [4]; 205 nM) | other results
1 | 1778130: modified oligonucleotide complementary to human APOE RNA (eA*e[5mC]eTeTeG*kG*dT*dG[ms]dA[ms]dA*dT*d[5mC]*dT*dT*dT*dA[ms]kTkT*eA*eA; antisense) [compound 1778130] | 48 | 19 | 99 | 100 | 85 | 72 | 52 | 45 | 20 | 12 | 18 | 9 | 310 | 23 | 18 | 78 | 75 | 75 | 51 | 54 | APOE RNA (% UTC) (human APOE RNA [4]; 512 nM): 56 % UTC; APOE RNA (% UTC) (human APOE RNA [4]; 1,280 nM): 51 % UTC; APOE RNA (% UTC) (human APOE RNA [4]; 3,200 nM): 31 % UTC; APOE RNA (% UTC) (human APOE RNA [4]; 8,000 nM): 24 % UTC; APOE RNA (% UTC) (human APOE RNA [4]; 20,000 nM): 12 % UTC; IC50 (human APOE RNA [4]): 370 nM; APOE RNA (% control) Cortex (human APOE RNA [5]): 34 % control; APOE RNA (% control) Spinal Cord (human APOE RNA [5]): 15 % control; APOE RNA (% control) Cortex (human APOE RNA [6]): 31 % control; APOE RNA (% control) Spinal Cord (human APOE RNA [6]): 34 % control
2 | 1785599: modified oligonucleotide complementary to human APOE RNA (k[5mC]*kT*kT*dG[ms]dG[ms]dT[ms]dG[ms]dA[ms]dA[ms]dT[ms]d[5mC]*dT*dT*dT*dA*dT*kT*kA*dA[ms]kA; antisense) [compound 1785599] | 55 | 20 | 100 | 106 | 93 | 81 | 71 | 43 | 32 | 18 | 10 | 15 | 510 | 26 | 34 | 77 | 61 | 72 | 60 | 46 | APOE RNA (% UTC) (human APOE RNA [4]; 512 nM): 20 % UTC; APOE RNA (% UTC) (human APOE RNA [4]; 1,280 nM): 21 % UTC; APOE RNA (% UTC) (human APOE RNA [4]; 3,200 nM): 17 % UTC; APOE RNA (% UTC) (human APOE RNA [4]; 8,000 nM): 12 % UTC; APOE RNA (% UTC) (human APOE RNA [4]; 20,000 nM): 6 % UTC; IC50 (human APOE RNA [4]): 100 nM; APOE RNA (% control) Cortex (human APOE RNA [5]): 35 % control; APOE RNA (% control) Spinal Cord (human APOE RNA [5]): 54 % control; APOE RNA (% control) Cortex (human APOE RNA [6]): 32 % control; APOE RNA (% control) Spinal Cord (human APOE RNA [6]): 38 % control
